Legend:
Test in all cases: relative viability (nuclei count vs DMSO), 5 days (fraction); higher = more cells survive
Linsitinib + Bortezomib = compound: C[C@]1(O)C[C@@H](c2nc(-c3ccc4ccc(-c5ccccc5)nc4c3)c3c(N)nccn32)C1 [Linsitinib] + CC(C)C[C@H](NC(=O)[C@H](Cc1ccccc1)NC(=O)c1cnccn1)B(O)O [Bortezomib] (partner 0.002 µM)
In short: (§1)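 Nuclei were stained with Hoechst during a one-step fixation (final 0.05% Triton X-100, 1% formaldehyde, 1 ug/ml Hoechst) carried out 5 days after dosing, then counted on 4× images. The cells, lung cancer lines in 1536-well plates, had been dosed by pin tool the day after seeding with one drug alone or a fixed anchor-drug dose plus five library-drug doses (not always all listed) in √10 steps. Relative viability is the nuclei count in treated wells divided by that in vehicle wells, and each value is the median of duplicate plates.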

Linsitinib + Decitabine = compound: C[C@]1(O)C[C@@H](c2nc(-c3ccc4ccc(-c5ccccc5)nc4c3)c3c(N)nccn32)C1 [Linsitinib] + Nc1ncn([C@H]2C[C@H](O)[C@@H](CO)O2)c(=O)n1 [Decitabine] (partner 2 µM)
In short: as §1

Ispinesib + Pictilisib = compound: Cc1ccc(C(=O)N(CCCN)[C@@H](c2nc3cc(Cl)ccc3c(=O)n2Cc2ccccc2)C(C)C)cc1 [Ispinesib] + CS(=O)(=O)N1CCN(Cc2cc3nc(-c4cccc5[nH]ncc45)nc(N4CCOCC4)c3s2)CC1 [Pictilisib] (partner 1 µM)
In short: as §1

Ispinesib + Decitabine = compound: Cc1ccc(C(=O)N(CCCN)[C@@H](c2nc3cc(Cl)ccc3c(=O)n2Cc2ccccc2)C(C)C)cc1 [Ispinesib] + Nc1ncn([C@H]2C[C@H](O)[C@@H](CO)O2)c(=O)n1 [Decitabine] (partner 2 µM)
In short: as §1

UMC-11 showed a relative viability (Linsitinib + Bortezomib; first compound 0.01 µM) of 0.693, a relative viability (Linsitinib + Bortezomib; first compound 0.03162 µM) of 0.621 and a relative viability (Linsitinib + Bortezomib; first compound 0.1 µM) of 0.829. The relative viability (Linsitinib + Bortezomib; first compound 1 µM) was 0.752, the relative viability (Linsitinib + Decitabine; first compound 0.01 µM) was 0.627 and the relative viability (Linsitinib + Decitabine; first compound 0.03162 µM) was 0.458. The relative viability (Linsitinib + Decitabine; first compound 0.1 µM) was 0.642, the relative viability (Linsitinib + Decitabine; first compound 0.3162 µM) was 0.423 and the relative viability (Linsitinib + Decitabine; first compound 1 µM) was 0.527. For the same cell line, the relative viability (Ispinesib + Pictilisib; first compound 0.001 µM) was 0.653, the relative viability (Ispinesib + Pictilisib; first compound 0.003162 µM) was 0.94 and the relative viability (Ispinesib + Pictilisib; first compound 0.01 µM) was 0.701. It also gave a relative viability (Ispinesib + Pictilisib; first compound 0.03162 µM) of 0.2, a relative viability (Ispinesib + Pictilisib; first compound 0.1 µM) of 0.263 and a relative viability (Ispinesib + Decitabine; first compound 0.001 µM) of 0.67. The relative viability (Ispinesib + Decitabine; first compound 0.003162 µM) was 0.904, the relative viability (Ispinesib + Decitabine; first compound 0.01 µM) was 0.583 and the relative viability (Ispinesib + Decitabine; first compound 0.03162 µM) was 0.28. It also gave a relative viability (Ispinesib + Decitabine; first compound 0.1 µM) of 0.23.

— the supplement of paper PMC10307832
